In ChEMBL document CHEMBL3244027, “Syntheses, analgetic activity, and physical dependence capacity of 5-phenyl-6,7-benzomorphan derivatives” (J Med Chem, 1979):
The source made the active and inactive calls. No cut-off for these calls is given here.

What was measured:
Mus musculus [1] = assay: Analgetic activity against CF-1 mouse assessed as increase in reaction time at 140 mg/kg, sc by heat stimulus induced tail flick response assay; assay type: functional, organism-based; design: dose 140 mg/kg
Mus musculus [2] = assay: Analgetic activity against CF-1 mouse assessed as increase in reaction time at 30 mg/kg, sc by heat stimulus induced tail flick response assay; assay type: functional, organism-based; design: dose 30 mg/kg
Mus musculus [3] = assay: Analgetic activity in sc dosed CF1S mouse assessed as writhing by phenylquinone writhing test; assay type: functional; conditions: Mus musculus, CF1S, sc; read-out: ED50
Mus musculus [4] = assay: Analgetic activity against CF-1 mouse assessed as increase in reaction time at 10 mg/kg, sc by heat stimulus induced tail flick response assay; assay type: functional, organism-based; design: dose 10 mg/kg
Mus musculus [5] = assay: Analgetic activity against CF-1 mouse assessed as increase in reaction time at 20 mg/kg, po by heat stimulus induced tail flick response assay; assay type: functional, organism-based; design: dose 20 mg/kg
Mus musculus [6] = assay: Analgetic activity against CF-1 mouse assessed as increase in reaction time at 30 mg/kg, po by heat stimulus induced tail flick response assay; assay type: functional, organism-based; design: dose 30 mg/kg
Mus musculus [7] = species: Mus musculus; assay: Analgetic activity in nalorphine challenged mouse assessed as frequency pretreated for 2 day by mouse jumping test; assay type: functional, organism-based
Mus musculus [8] = assay: Analgetic activity against CF-1 mouse assessed as increase in reaction time at 1.2 mg/kg, sc by heat stimulus induced tail flick response assay; assay type: functional, organism-based; design: dose 1.2 mg/kg
Mus musculus [9] = assay: Analgetic activity against CF-1 mouse assessed as increase in reaction time at 2 mg/kg, sc by heat stimulus induced tail flick response assay; assay type: functional, organism-based; design: dose 2 mg/kg
Rhesus monkey = assay: Analgetic activity in naloxone challenged monkey assessed as frequency pretreated for 2 day by mouse jumping test; assay type: functional, organism-based; conditions: Macaca mulatta
Mus musculus [10] = assay: Analgetic activity against CF-1 mouse assessed as increase in reaction time at 40 mg/kg, sc by heat stimulus induced tail flick response assay; assay type: functional, organism-based; design: dose 40 mg/kg
Mus musculus [11] = assay: Analgetic activity against CF-1 mouse assessed as increase in reaction time at 80 mg/kg, sc by heat stimulus induced tail flick response assay; assay type: functional, organism-based; design: dose 80 mg/kg
Mus musculus [12] = assay: Analgetic activity against CF-1 mouse assessed as increase in reaction time at 5 mg/kg, sc by heat stimulus induced tail flick response assay; assay type: functional, organism-based; design: dose 5 mg/kg
Mus musculus [13] = species: Mus musculus; assay: Analgetic activity in naloxone challenged mouse assessed as frequency pretreated for 2 day by mouse jumping test; assay type: functional, organism-based
Mus musculus [14] = assay: Analgetic activity in po dosed CF1S mouse assessed as writhing by phenylquinone writhing test; assay type: functional; conditions: Mus musculus, CF1S, po; read-out: ED50
Mus musculus [15] = assay: Analgetic activity against CF-1 mouse assessed as increase in reaction time at 4 mg/kg, sc by heat stimulus induced tail flick response assay; assay type: functional, organism-based; design: dose 4 mg/kg
Mus musculus [16] = assay: Analgetic activity against CF-1 mouse assessed as increase in reaction time at 16 mg/kg, po by heat stimulus induced tail flick response assay; assay type: functional, organism-based; design: dose 16 mg/kg
Mus musculus [17] = assay: Analgetic activity against CF-1 mouse assessed as increase in reaction time at 100 mg/kg, po by heat stimulus induced tail flick response assay; assay type: functional, organism-based; design: dose 100 mg/kg
Mus musculus [18] = assay: Analgetic activity against CF-1 mouse assessed as increase in reaction time at 1.2 mg/kg, po by heat stimulus induced tail flick response assay; assay type: functional, organism-based; design: dose 1.2 mg/kg
Mus musculus [19] = assay: Analgetic activity against CF-1 mouse assessed as increase in reaction time at 2.5 mg/kg, sc by heat stimulus induced tail flick response assay; assay type: functional, organism-based; design: dose 2.5 mg/kg
Mus musculus [20] = assay: Analgetic activity against CF-1 mouse assessed as increase in reaction time at 60 mg/kg, po by heat stimulus induced tail flick response assay; assay type: functional, organism-based; design: dose 60 mg/kg
Mus musculus [21] = assay: Analgetic activity against CF-1 mouse assessed as increase in reaction time at 160 mg/kg, sc by heat stimulus induced tail flick response assay; assay type: functional, organism-based; design: dose 160 mg/kg
Mus musculus [22] = assay: Analgetic activity against CF-1 mouse assessed as increase in reaction time at 10 mg/kg, po by heat stimulus induced tail flick response assay; assay type: functional, organism-based; design: dose 10 mg/kg
Mus musculus [23] = assay: Analgetic activity against CF-1 mouse assessed as increase in reaction time at 50 mg/kg, sc by heat stimulus induced tail flick response assay; assay type: functional, organism-based; design: dose 50 mg/kg
Mus musculus [24] = assay: Analgetic activity against CF-1 mouse assessed as increase in reaction time at 320 mg/kg, po by heat stimulus induced tail flick response assay; assay type: functional, organism-based; design: dose 320 mg/kg
Mus musculus [25] = assay: Analgetic activity against CF-1 mouse assessed as increase in reaction time at 100 mg/kg, sc by heat stimulus induced tail flick response assay; assay type: functional, organism-based; design: dose 100 mg/kg
Mus musculus [26] = assay: Analgetic activity against CF-1 mouse assessed as increase in reaction time at 80 mg/kg, po by heat stimulus induced tail flick response assay; assay type: functional, organism-based; design: dose 80 mg/kg
Mus musculus [27] = assay: Toxicity in sc dosed CF1S mouse; assay type: organism-based; conditions: in vivo
Mus musculus [28] = assay: Analgetic activity against CF-1 mouse assessed as increase in reaction time at 1.5 mg/kg, sc by heat stimulus induced tail flick response assay; assay type: functional, organism-based; design: dose 1.5 mg/kg
Mus musculus [29] = assay: Analgetic activity against CF-1 mouse assessed as increase in reaction time at 60 mg/kg, sc by heat stimulus induced tail flick response assay; assay type: functional, organism-based; design: dose 60 mg/kg

## CCN1CCC2(c3ccccc3)c3cc(O)ccc3CC1C2C (centres undefined)
Mus musculus [1]
  Activity: Active

## CCN1CCC2(c3ccccc3)CC1Cc1ccc(O)cc12 (racemic)
Mus musculus [2]
  Activity: inactive
Mus musculus [3]
  ED50: > 30 mg/kg

## CC1C2Cc3ccc(O)cc3C1(c1ccc(Cl)cc1)CCN2C (racemic)
Mus musculus [4]
  Activity: Active
Mus musculus [5]
  Activity: Active

## CC(=O)Oc1ccc2c(c1)C1(c3ccccc3)CCN(C(C)=O)C(C2)C1 (racemic)
Mus musculus [3]
  ED50: > 100 mg/kg
Mus musculus [6]
  Activity: inactive

## CC1C2Cc3ccc(OC(=O)c4cccc([N+](=O)[O-])c4)cc3C1(c1ccccc1)CCN2C (centres undefined)
Mus musculus [7]
  Activity: Active
Mus musculus [8]
  Activity: Active

## C[C@@H]1C2Cc3ccc(O)cc3C1(c1ccccc1)CCN2C (some centres undefined)
Mus musculus [9]
  Activity: Active
Rhesus monkey
  Activity: Active

## COc1ccc2c(c1)C1(c3ccccc3)CCN(C)C(C2)C1C (centres undefined)
Mus musculus [10]
  Activity: Active
Mus musculus [11]
  Activity: Active
Mus musculus [5]
  Activity: Active

## COCOc1ccc2c(c1)C1(c3ccccc3)CCN(C)C(C2)C1C (centres undefined)
Mus musculus [12]
  Activity: Active
Mus musculus [5]
  Activity: Active

## CN1CC[C@]23c4c5ccc(O)c4O[C@H]2[C@@H](O)C=C[C@H]3[C@H]1C5 [MORPHINE]
Mus musculus [13]
  Activity: Active
Mus musculus [14]
  ED50: 8.9 mg/kg
Mus musculus [15]
  Activity: Active
Mus musculus [16]
  Activity: Active

## CC(=O)Oc1ccc2c(c1)C1(c3ccc(Cl)cc3)CCN(C#N)C(C2)C1 (racemic)
Mus musculus [3]
  ED50: > 100 mg/kg
Mus musculus [17]
  Activity: inactive

## CC1C2Cc3ccc(OC(=O)c4ccc(Br)cc4)cc3C1(c1ccccc1)CCN2C (centres undefined)
Mus musculus [18]
  Activity: Active
Mus musculus [12]
  Activity: Active

## CC1C2Cc3ccc(OC(=O)C4CCC4)cc3C1(c1ccccc1)CCN2C (centres undefined)
Mus musculus [19]
  Activity: Active
Mus musculus [5]
  Activity: Active

## O=C(Oc1ccc2c(c1)C1(c3ccccc3)CCN(C(=O)C3CC3)C(C2)C1)C1CC1 (racemic)
Mus musculus [20]
  Activity: inactive
Mus musculus [3]
  ED50: > 100 mg/kg

## CCCCCN1CCC2(c3ccccc3)c3cc(O)ccc3CC1C2C (centres undefined)
Mus musculus [19]
  Activity: Active
Mus musculus [21]
  Activity: Active

## CC1C2Cc3ccc(OC(=O)c4ccco4)cc3C1(c1ccccc1)CCN2C(=O)c1ccco1 (centres undefined)
Mus musculus [20]
  Activity: inactive

## CC1C2Cc3ccc(O)cc3C1(c1ccc(F)cc1)CCN2C (racemic)
Mus musculus [22]
  Activity: Active
Mus musculus [19]
  Activity: Active

## CC1C2Cc3ccc(OC(=O)CCl)cc3C1(c1ccccc1)CCN2C (centres undefined)
Mus musculus [19]
  Activity: Active

## CCCC(=O)Oc1ccc2c(c1)C1(c3ccccc3)CCN(C)C(C2)C1C (centres undefined)
Mus musculus [22]
  Activity: Active
Mus musculus [5]
  Activity: Active

## CC1C2Cc3ccc(O)cc3C1(c1ccccc1)CCN2CCc1ccc(N)cc1 (centres undefined)
Mus musculus [22]
  Activity: Active
Mus musculus [8]
  Activity: Active

## CN(C)C(=O)CCN1CCC2(c3ccccc3)CC1Cc1ccc(O)cc12 (racemic)
Mus musculus [23]
  Activity: inactive

## COc1ccc2c(c1)C1(c3ccccc3)CCN(C)C(C2)C1 (centres undefined)
Mus musculus [2]
  Activity: inactive
Mus musculus [24]
  Activity: inactive

## CC(=O)Oc1ccc2c(c1)C1(c3ccc(Cl)cc3)CCN(C)C(C2)C1 (racemic)
Mus musculus [3]
  ED50: 20 mg/kg
Mus musculus [25]
  Activity: Active

## CC1C2Cc3ccc(O)cc3C1(c1ccccc1)CCN2CCc1ccccc1 (centres undefined)
Mus musculus [4]
  Activity: Active
Mus musculus [26]
  Activity: Active

## Oc1ccc2c(c1)C1(c3ccccc3)CCN(CC3CC3)C(C2)C1 (centres undefined)
Mus musculus [27]
  Activity: Toxic

## COc1ccc2c(c1)C1(c3ccccc3)CCN(C)C(C2)C1 (racemic)
Mus musculus [25]
  Activity: inactive

## CCCCC(=O)Oc1ccc2c(c1)C1(c3ccccc3)CCN(C)C(C2)C1C (centres undefined)
Mus musculus [22]
  Activity: Active
Mus musculus [28]
  Activity: Active

## CC(=O)N1CCC2(c3ccccc3)CC1Cc1ccc(O)cc12 (racemic)
Mus musculus [3]
  ED50: > 100 mg/kg
Mus musculus [17]
  Activity: inactive

## CC(O)C(=O)O.CC1C2Cc3ccc(O)cc3C1(c1ccccc1)CCN2CCCCc1ccccc1 (centres undefined)
Mus musculus [14]
  ED50: > 100 mg/kg
Mus musculus [25]
  Activity: inactive

## CC1C2Cc3ccc(O)cc3C1(c1ccccc1)CCN2CCCC(=O)c1ccc(F)cc1.Cl.O (centres undefined)
Mus musculus [13]
  Activity: inactive
Mus musculus [23]
  Activity: inactive
Mus musculus [3]
  ED50: > 100 mg/kg

## CN1CCC2(c3ccccc3)CC1Cc1ccc(O)cc12 (stereo in doubt; 43)
Mus musculus [29]
  Activity: inactive

## Oc1ccc2c(c1)C1(c3ccccc3)CCN(CC3CC3)C(C2)C1 (racemic)
Rhesus monkey
  Activity: inactive

## CCC(=O)Oc1ccc2c(c1)C1(c3ccccc3)CCN(C)C(C2)C1C (centres undefined)
Mus musculus [19]
  Activity: Active

## CC1C2Cc3ccc(OC(=O)c4cccc(Cl)c4)cc3C1(c1ccccc1)CCN2C (centres undefined)
Mus musculus [8]
  Activity: Active

## CC(=O)Oc1ccc2c(c1)C1(c3ccccc3)CCN(C)C(C2)C1C (centres undefined)
Mus musculus [22]
  Activity: Active
Mus musculus [15]
  Activity: Active

## CC1C2Cc3ccc(OC(=O)c4ccc(Cl)cc4)cc3C1(c1ccccc1)CCN2C (centres undefined)
Mus musculus [8]
  Activity: Active

## Oc1ccc2c(c1)C1(c3ccccc3)CCN(CC3CCC3)C(C2)C1 (racemic)
Rhesus monkey
  Activity: inactive
